# Values of other authors as cited in patent publication US20220257469A1, “PHARMACEUTICAL UNIT DOSE SYSTEMS FOR ORAL DRY SOLUTION AND SUSPENSION” (Brillian Pharma Inc., priority 2019, published 2022).
# Conditions: liquid suspension, in five days, not refrigerated
compound,measurement,value
O=C(O)[C@H]1/C(=C/CO)O[C@@H]2CC(=O)N21 [Clavulanic acid],loss of potency,30-40%
